# In patent US8802597B2, “Herbicidal pyrimidines” (E I du Pont de Nemours and Company, priority 2003, dated 2014):
# Like-named read-outs stand apart in the source and are kept apart here.
# Columns and labels:
# Test in all cases: Test C pre/postemergence
# Assay type in all cases: in vivo
# [1] = test system: common (oilseed) sunflower (Helianthus annuus); settings: Helianthus annuus, pre-emergence, Preemergence, read-out: Plant response rating, Sunflower
# Summary of the method: (§1)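 Applications: preemergence onto seeded soil and postemergence onto 1- to 4-leaf seedlings, compound carried in non-phytotoxic solvent plus surfactant. Kept in greenhouse 12 to 14 days. Scored visually relative to untreated controls, 0 (no effect) to 100 (complete control).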
# [2] = test system: pigweed (Amaranthus retroflexus); settings: Amaranthus retroflexus; for pest or weed control at 31 g/ha: 31 g ai/ha; for pest or weed control at 62 g/ha: 62 g ai/ha; for pest or weed control at 125 g/ha: 125 g ai/ha; for pest or weed control at 250 g/ha: 250 g ai/ha
# Summary of the method: as §1
# [3] = test system: bermudagrass (Cynodon dactylon); settings: Cynodon dactylon; for pest or weed control at 31 g/ha: 31 g ai/ha; for pest or weed control at 62 g/ha: 62 g ai/ha; for pest or weed control at 125 g/ha: 125 g ai/ha; for pest or weed control at 125 g/ha / pest or weed control at 250 g/ha: scale 0 to 100; for pest or weed control at 250 g/ha: 250 g ai/ha
# Summary of the method: as §1
# [4] = test system: corn (Zea mays); settings: Zea mays; for Corn plant response rating (crop injury, 0 = no effect, 100 = complete kill) at 31 g/ha: 31 g ai/ha; for Corn plant response rating (crop injury, 0 = no effect, 100 = complete kill) at 62 g/ha: 62 g ai/ha; for Corn plant response rating (crop injury, 0 = no effect, 100 = complete kill) at 125 g/ha: 125 g ai/ha; for Corn plant response rating (crop injury, 0 = no effect, 100 = complete kill) at 250 g/ha: 250 g ai/ha
# Summary of the method: as §1
# [5] = test system: woolly cupgrass (Eriochloa villosa); settings: Eriochloa villosa; for pest or weed control at 31 g/ha: 31 g ai/ha; for pest or weed control at 62 g/ha: 62 g ai/ha; for pest or weed control at 125 g/ha: 125 g ai/ha; for pest or weed control at 250 g/ha: 250 g ai/ha
# Summary of the method: as §1
# [6] = test system: morningglory (Ipomoea coccinea); settings: Ipomoea; for pest or weed control at 31 g/ha: 31 g ai/ha; for pest or weed control at 62 g/ha: 62 g ai/ha; for pest or weed control at 125 g/ha: 125 g ai/ha; for pest or weed control at 250 g/ha: 250 g ai/ha
# Summary of the method: as §1
# [7] = post-emergence, Postemergence, scale 0 to 100 (0 no effect, 100 complete control), read-out: Pigweed plant response rating
# [8] = pre-emergence, Preemergence, scale 0 to 100, 0 no effect, 100 complete control, read-out: Plant response rating, Pigweed
# [9] = pre-emergence, Preemergence, scale 0 to 100, read-out: Plant response rating, Pigweed
# [10] = post-emergence, Postemergence, read-out: Plant response rating, Bermudagrass
# [11] = pre-emergence, Preemergence, scale 0 to 100, 0 no effect, 100 complete control, read-out: Plant response rating, Bermudagrass
# [12] = pre-emergence, Preemergence, read-out: Plant response rating, Bermudagrass
# [13] = post-emergence, Postemergence, scale 0 to 100 (0 no effect, 100 complete control), read-out: Corn plant response rating
# [14] = pre-emergence, Preemergence, scale 0 to 100, 0 no effect, 100 complete control, read-out: Plant response rating, Corn
# [15] = post-emergence, Postemergence, scale 0 to 100 (0 no effect, 100 complete control), read-out: Cupgrass, Woolly plant response rating
# [16] = pre-emergence, Preemergence, scale 0 to 100, 0 no effect, 100 complete control, read-out: Plant response rating, Cupgrass, Woolly
# [17] = pre-emergence, Preemergence, scale 0 to 100, read-out: Plant response rating, Cupgrass, Woolly
# [18] = post-emergence, Postemergence, scale 0 to 100 (0 no effect, 100 complete control), read-out: Morningglory plant response rating
# [19] = pre-emergence, Preemergence, scale 0 to 100, 0 no effect, 100 complete control, read-out: Plant response rating, Morningglory
# [20] = pre-emergence, Preemergence, scale 0 to 100, read-out: Plant response rating, Morningglory
smiles,measurement,setting,value
COC(=O)c1nc(C(C)C)nc(N)c1Br [Compound 3],pest or weed control at 31 g/ha,"[1]; 31 g ai/ha, scale 0 to 100, 0 no effect, 100 complete control",0%
same,pest or weed control at 62 g/ha,"[1]; 62 g ai/ha, scale 0 to 100, 0 no effect, 100 complete control",0%
same,pest or weed control at 125 g/ha,"[1]; 125 g ai/ha, scale 0 to 100",0%
same,pest or weed control at 250 g/ha,"[1]; 250 g ai/ha, scale 0 to 100",0%
same,pest or weed control at 31 g/ha,"[2]; post-emergence, Postemergence, read-out: Plant response rating (scale of 0 to 100), Pigweed",60%
same,pest or weed control at 62 g/ha,[2]; [7],65%
same,pest or weed control at 125 g/ha,[2]; [7],75%
same,pest or weed control at 250 g/ha,"[2]; post-emergence, Postemergence, scale 0 to 100, read-out: Plant response rating, Pigweed",80%
same,pest or weed control at 31 g/ha,[2]; [8],20%
same,pest or weed control at 62 g/ha,[2]; [8],50%
same,pest or weed control at 125 g/ha,[2]; [9],65%
same,pest or weed control at 250 g/ha,[2]; [9],80%
same,pest or weed control at 31 g/ha,"[3]; post-emergence, Postemergence, read-out: Plant response rating (scale of 0 to 100), Bermudagrass",0%
same,pest or weed control at 62 g/ha,"[3]; post-emergence, Postemergence, scale 0 to 100 (0 no effect, 100 complete control), read-out: Bermudagrass plant response rating",0%
same,pest or weed control at 125 g/ha,[3]; [10],0%
same,pest or weed control at 250 g/ha,[3]; [10],45%
same,pest or weed control at 31 g/ha,[3]; [11],0%
same,pest or weed control at 62 g/ha,[3]; [11],0%
same,pest or weed control at 125 g/ha,[3]; [12],0%
same,pest or weed control at 250 g/ha,[3]; [12],0%
same,"Corn plant response rating (crop injury, 0 = no effect, 100 = complete kill) at 31 g/ha","[4]; post-emergence, Postemergence, read-out: Plant response rating (scale of 0 to 100), Corn",0%
same,"Corn plant response rating (crop injury, 0 = no effect, 100 = complete kill) at 62 g/ha",[4]; [13],0%
same,"Corn plant response rating (crop injury, 0 = no effect, 100 = complete kill) at 125 g/ha",[4]; [13],0%
same,"Corn plant response rating (crop injury, 0 = no effect, 100 = complete kill) at 250 g/ha","[4]; post-emergence, Postemergence, scale 0 to 100",0%
same,"Corn plant response rating (crop injury, 0 = no effect, 100 = complete kill) at 31 g/ha",[4]; [14],0%
same,"Corn plant response rating (crop injury, 0 = no effect, 100 = complete kill) at 62 g/ha",[4]; [14],0%
same,"Corn plant response rating (crop injury, 0 = no effect, 100 = complete kill) at 125 g/ha","[4]; pre-emergence, Preemergence, scale 0 to 100, read-out: Plant response rating, Corn",0%
same,"Corn plant response rating (crop injury, 0 = no effect, 100 = complete kill) at 250 g/ha","[4]; pre-emergence, Preemergence, scale 0 to 100",0%
same,pest or weed control at 31 g/ha,"[5]; post-emergence, Postemergence, read-out: Plant response rating (scale of 0 to 100), Cupgrass, Woolly",0%
same,pest or weed control at 62 g/ha,[5]; [15],0%
same,pest or weed control at 125 g/ha,[5]; [15],0%
same,pest or weed control at 250 g/ha,"[5]; post-emergence, Postemergence, scale 0 to 100, read-out: Plant response rating, Cupgrass, Woolly",0%
same,pest or weed control at 31 g/ha,[5]; [16],0%
same,pest or weed control at 62 g/ha,[5]; [16],0%
same,pest or weed control at 125 g/ha,[5]; [17],0%
same,pest or weed control at 250 g/ha,[5]; [17],0%
same,pest or weed control at 31 g/ha,"[6]; post-emergence, Postemergence, read-out: Plant response rating (scale of 0 to 100), Morningglory",45%
same,pest or weed control at 62 g/ha,[6]; [18],60%
same,pest or weed control at 125 g/ha,[6]; [18],65%
same,pest or weed control at 250 g/ha,"[6]; post-emergence, Postemergence, scale 0 to 100, read-out: Plant response rating, Morningglory",75%
same,pest or weed control at 31 g/ha,[6]; [19],0%
same,pest or weed control at 62 g/ha,[6]; [19],0%
same,pest or weed control at 125 g/ha,[6]; [20],20%
same,pest or weed control at 250 g/ha,[6]; [20],35%
